{"source": "patent US7901914B2", "about": "“Microbiological method of the biosynthesis of natural blue-violet colorants violacein and deoxyviolacein and the utilization thereof” (Stiftung Alfred-Wegener-Institut fuer Polar- und …, priority 2000, dated 2011)", "origin": "cited, not measured here"}
{"smiles": "O=C1NC(c2c[nH]c3ccc(O)cc23)=C/C1=C1\\C(=O)Nc2ccccc21", "note": "[violacein, 3-[1,2-dihydro-5-(5-hydroxy-1H-indole-3-yl)-2-oxo-3-H-pyrrole-3-ylidene]-1,3-dihydro-2H-indole-2-on]", "values": [{"measurement": "solubility in organic solvents", "setting": "in acetone, ethanol and dioxane", "value": "soluble"}, {"measurement": "solubility in water", "setting": "in water", "value": "practically insoluble"}]}
